In PubChem BioAssay (NCI) one finds TGI and GI50 data, which are given here for 21 compounds.

What all share (experiment): growth of human tumour cells (NCI), 48 h
Test [1] concerns HCT-116 colon.
In test [2] the test system is HOP-62 NSCLC.
In test [3] the test system is LOX IMVI melanoma.
Test [4] concerns SF-539 CNS.
Test [5] deals with SK-OV-3 ovarian.
Test [6] relates to SNB-75 CNS.
The subject of test [7] is UO-31 renal.
Test [8] concerns HS 578T breast.
The test system of test [9] is NCI/ADR-RES ovarian.

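Compound exposure: 48 hours, 5 concentrations, 96-well plates. GI50: concentration for 50% inhibition of growth. TGI marks complete inhibition of growth.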

Regarding `O=c1[nH]c(Br)nc2c(Br)c[nH]c12`, the TGI in [1], in test [2], in test [3], in test [4], in test [5] and in test [6] was above 100 µM throughout. The TGI in test [7] is above 100 µM.

As to `COC(=O)CCC(=O)c1c(C)[nH]c(/C=C2\N=C(c3ccc[nH]3)C=C2OC)c1C`, the GI50 is 0.257 µM in test [1]; 0.85 µM in test [2]; 1.35 µM in test [8]; 0.0666 µM in [3]; 0.728 µM in test [9]; 1.18 µM in test [4]. Moreover, the GI50 in test [5] was 6.16 µM; in test [6] it was 0.971 µM; in test [7], 0.279 µM. In addition, the TGI in test [2] stood at 2.33 µM; in [8], 4.07 µM; in [3], 0.261 µM; in test [9], 3.66 µM; in [4] it was 3.03 µM; in test [5] it was 13.8 µM. Further, the TGI stood at 3.51 µM in test [6] and 0.866 µM in [7].

Take `Cn1c(CCC#N)nc2ccc(Br)cc2c1=O`: the TGI in [2], in [3], in [4], in test [5], in test [6] and in test [7] was above 100 µM throughout.

As to `Cc1ccccc1C(=O)Oc1ccc(Oc2ccccc2)cc1`, the TGI in [1], in test [2], in test [4], in [5], in [6] and in [7] was above 100 µM each time.

In the case of `C(=C\c1csnn1)/c1cccnc1`, the TGI in [1], in [2], in [3], in test [4], in test [5] and in test [6] was above 100 µM throughout. Further, the TGI in test [7] was above 100 µM.

`COc1ccc2[nH]cc(-c3nc(-c4cn(C)c5ccncc45)cs3)c2c1`: the GI50 in test [1] is 1.77 µM; in test [2], 1.92 µM; in test [8], 14.7 µM; in [4] it was 1.9 µM; in test [5], 19.4 µM; in test [6], 15.3 µM. Further, the GI50 in test [7] was 1.8 µM. For the same compound, the TGI in test [1] was found to be 3.21 µM; in test [2], 3.63 µM; in test [8], 41.6 µM; in [4], 3.37 µM; in test [5], 33.7 µM; in [6], 29 µM. In test [7], this compound came in with a TGI of 3.36 µM.

On to `CC(=O)N1CC2Nc3ccccc3C2CC1CO` (centres undefined), for which the TGI in [1], in test [2], in test [3], in [4], in [5] and in test [6] was above 100 µM in each case. Also, in test [7], the TGI was above 100 µM.

With `Nc1ccc(Nc2nc(F)nc(-c3c4ccccc4c4n3CCS4)n2)cc1`, the TGI in [1] is 28 µM; in test [2], 31.3 µM; in test [3], 24.6 µM; in test [4], 27.6 µM; in [5], 31.1 µM; in [6], 31 µM. Besides, in test [7], the TGI was found to be 22.2 µM.

On to `CC(C)C(=O)N[C@@H](C)C(=O)N(Cc1ccc2ccccc2c1)N=O`, for which the TGI in test [1], in test [2], in test [3], in [4], in test [5] and in [6] was above 100 µM in each case. The compound also yielded a TGI in test [7] above 100 µM.

Take `CC1(O)CC2C(CC1SCCO)C2(C)C` (centres undefined): the TGI in test [1], in test [4], in test [5], in test [6] and in [7] was above 100 µM each time.

Turning to `Brc1ccc([I+]c2ccc(Br)cc2)cc1`, the GI50 is 0.643 µM in test [1]; 2.96 µM in test [8]; 0.713 µM in [3]; above 100 µM in test [9]; 1.37 µM in test [4]; 1.5 µM in [5]. For the same compound, the results for the GI50 in [6] and in test [7] were 1.6 µM and 5.96 µM, respectively. The TGI in test [1] was 11.5 µM; in test [8], 19.9 µM; in [3] it was 2.12 µM; in [9], above 100 µM; in test [4], 4.28 µM; in test [5], 3.12 µM. Further, the TGI in test [6] stood at 8.03 µM; in test [7], 26.1 µM.

Consider `COc1ccc(-c2n[nH]nc2-c2csc3ccccc23)cc1OC`, for which the GI50 in test [1] is 2.84 µM; in test [2], 2.18 µM; in [8] it was 2.25 µM; in [3], 3.04 µM; in test [9] it was 2.39 µM; in [4], 1.84 µM. Besides, the results for the GI50 in test [5] and in test [7] were 2.37 µM and 2.78 µM, respectively. Further, the TGI was 15.3 µM in test [1]; 24.3 µM in [2]; 10.6 µM in [8]; 15.7 µM in test [3]; 23.2 µM in test [9]; 5.79 µM in [4]. For the same compound, the TGI in test [5] came out at 19.3 µM; in test [7] it was 20.8 µM.

As for `CC1=CC(C)(C)N=C2SC(c3ccc(Cl)cc3)=NN12`, the TGI in [2] was above 100 µM; in test [3], above 100 µM; in test [4] it was above 100 µM; in [5] it was above 100 µM; in [7], 50.4 µM.

In the case of `CN1CCN(c2ccc3c4c(cccc24)C(=O)N(CCN2CCN(CCCN4CCN(CCN5C(=O)c6cccc7c(N8CCN(C)CC8)ccc(c67)C5=O)CC4)CC2)C3=O)CC1`, the GI50 in [1] was 1.23 µM; in test [2] it was 1.49 µM; in [8], 10.6 µM; in test [3], 4.56 µM; in test [9], 4.2 µM; in test [4], 7.67 µM. In addition, the GI50 is 9.49 µM in test [5] and 7 µM in test [6]. For the same compound, the TGI in [1] was determined as 5.79 µM; in [2], 6.82 µM; in test [8], 38.7 µM; in test [3], 11.6 µM; in test [9], 10.3 µM; in test [4] it was 16.9 µM. Besides, the TGI in [5] worked out at 18.3 µM; in [6], 14.1 µM.

For `CCC[CH2][Sn]([CH2]CCC)([O]C(=O)c1cccc(F)c1)[O]C(=O)c1cccc(F)c1`, the GI50 is 1.29 µM in test [1]; 1.91 µM in test [2]; 0.605 µM in [3]; 1.1 µM in test [4]; 1.84 µM in [5]; 0.657 µM in test [6]. In [7], the GI50 was 1.23 µM. Besides, the TGI in test [1] came out at 2.55 µM; in test [2], 3.38 µM; in test [3], 2.99 µM; in test [4] it was 2.31 µM; in test [5] it was 3.45 µM; in test [6], 1.94 µM. In addition, in test [7], the TGI was 2.47 µM.

Take `N#Cc1ccccc1C#C/C=C\C#Cc1ccc(OCCCNC(=O)c2cc3ccccc3[nH]2)cc1`: the GI50 in [1] is 14.8 µM; in test [2], 14.9 µM; in test [3], 11.5 µM; in test [9], 23.5 µM; in test [4], 15.4 µM; in test [5], 19.3 µM. Further, the GI50 in test [6] was 17.9 µM; in test [7], 17 µM. Besides, the TGI in test [1] was 39.6 µM; in [2], 31.1 µM; in test [3], 23.7 µM; in test [9], above 100 µM; in test [4], 35.6 µM; in test [5] it was 54.5 µM. Also, the TGI was determined as 42.6 µM in test [6] and 35.4 µM in test [7].

With `O=c1ccccc2cccc(O)c12`, the TGI in test [1], in [2], in test [3], in test [4], in [5] and in test [6] was above 100 µM each time.

Take `O=c1cc(Cl)nc[nH]1`: the TGI in test [1], in test [2], in test [3], in [5], in [6] and in test [7] was above 100 µM each time.

Regarding `Cc1cc(NS(=O)(=O)c2ccc(NC(=O)c3cccc4c(N)c5ccccc5nc34)cc2)no1`, the TGI in test [1] is 27.6 µM; in test [2], 86.9 µM; in test [3], 65.8 µM; in test [4], 47.6 µM; in test [5] it was 75.5 µM; in [6], above 100 µM. In addition, in [7], the TGI stood at 95.7 µM.

Turning to `COc1ccc2c3c1C(=O)CCC3CO2` (centres undefined), the TGI in test [1], in test [2], in test [3], in test [4], in test [5] and in test [7] was above 100 µM throughout.

Consider `CC(=O)O[C@@H]1CO[C@H]2O[C@H]3[C@@H](C(C=O)=C[C@H](O)[C@@H]4C5=C(C(C)C)CC[C@]5(C)CC[C@@]34C)[C@@]2(O)C1=O`, for which the TGI in test [1] was 0.27 µM; in test [2] it was 1.82 µM; in test [8] it was 0.594 µM; in [3], 0.687 µM; in [9] it was 1.06 µM; in [4] it was 0.37 µM. The TGI in test [6] was found to be 1.35 µM; in [7] it was 0.598 µM.
